Source: patent publication US7534913B2, “Crystalline form of nateglinide” (Teva Pharmaceutica Industries Ltd., priority 2002, dated 2009)
Values belong to the compound of their own block, whether it stands above or below them.

Assays:
[1] = by DSC, according to U.S. Pat. No. 5,463,116; cited from earlier work
[2] = Thermal stability: transformation of crystalline forms on drying or heating, form by XRPD; type: physicochemical; conditions: for form obtained upon drying / heating: generally about 40° C. to about 80° C.
Method: The various crystalline forms are related to each other in that drying of one form may result in a transformation to another form, namely nateglinide Forms A, B, D, E, F, G, H, I, J, K, L, M, N, Q, S, T, V, Z, α, β, δ,γ, ε, θ and Ω. The drying is carried out by heating a sample under ambient or reduced pressure. Generally, a preferred temperature is from about 40° C. to about 80° C., more preferably under reduced pressure. […] The term “stable” as used herein refers to a polymorphic change of less than about 5% by weight, more preferably less than about 2%, particularly for Form δ.
Form γ may also be prepared by heating Form J containing seeds of Form γ under similar conditions.
• X-Ray diffraction was performed on X-Ray powder diffractometer, Scintag®, variable goniometer, Cu-tube, solid state detector. Sample holder: A round standard aluminum sample holder with round zero background quartz plate. • The sample was put on the sample holder and immediately analyzed as is. Scanning parameters: Range: 2-40 deg 2θ, Continuos Scan, Rate: 3 deg./min. DSC: • DSC821^e Mettler Toledo®, Sample weight: 3-5 mg, Heating rate: 10° C./min, Number of holes in the crucible: 3 TGA: • Mettler TG50®, Sample weight: 7-15 mg, Heating rate: 10° C./min FTIR: • Perkin-Elmer®, Spectrum One FTIR spectrometer, Range: 4000-400 cm-1, no. of scans: 16, resolution: 4.0 cm-1, DRIFT technique.
Nateglinide Form delta (10 grams), with about 3% heptane (wt/wt), was dried in a fluidized bed drier for 4 hours at 60° C.
Sample of nateglinide form U (˜1 g) was introduced into a 6-gram vial and heated over 8.5 h in a 100° C. oil bath. The vial were extracted from the bath.
Sample of nateglinide form U (˜0.5 g) was heated to 120° C. for 1 h in an atmospheric pressure.
Sample of nateglinide form δ (˜0.5 g) was heated to 120° C. for 1 h in an atmospheric pressure.
The product of example 11 was dried at 50° C. in a vacuum oven overnight, and analyzed by XRD.
Nateglinide (40 grams) Form delta (1.5% heptane) was dried in a stirred reactor (7-10 rpm) under 60 mmHg vacuum and at 60° C.

[3] = heating under ambient or reduced pressure

SMILES: CC(C)[C@H]1CC[C@H](C(=O)N[C@H](Cc2ccccc2)C(=O)O)CC1 [Form B, nateglinide]
stability of crystals during grinding [1]: unstable and susceptible to change during grinding

SMILES: CC(C)[C@H]1CC[C@H](C(=O)N[C@H](Cc2ccccc2)C(=O)O)CC1 [Form Ω, nateglinide]
form by XRD after drying in a vacuum oven ([2]; wet sample, 50° C., vacuum oven, overnight): mixture of Form omega and Form Z

SMILES: CC(C)[C@H]1CC[C@H](C(=O)N[C@H](Cc2ccccc2)C(=O)O)CC1 [acetonitrile solvate of Form Epsilon, nateglinide]
form obtained upon drying / heating [2, 3]: Form B

Other lines, results leading:

polymorph after drying in a stirred reactor ([2]; 60 mmHg vacuum, 60° C., 6 hours, 7-10 rpm, starting with 1.5% heptane): remained delta form
polymorphic form after drying in a fluidized bed drier ([2]; 4 hours at 60° C., starting with about 3% heptane (wt/wt)): delta
SMILES: CC(C)[C@H]1CC[C@H](C(=O)N[C@H](Cc2ccccc2)C(=O)O)CC1 [delta]

form obtained upon drying / heating [2, 3]: Forms H or P
SMILES: CC(C)[C@H]1CC[C@H](C(=O)N[C@H](Cc2ccccc2)C(=O)O)CC1 [nitromethane solvates of Form Epsilon, nateglinide]

thermal stability (conversion to another form upon heating) [2, 3]: thermally stable
SMILES: CC(C)[C@H]1CC[C@H](C(=O)N[C@H](Cc2ccccc2)C(=O)O)CC1 [sigma]
